# From PubChem BioAssay (NCI)
#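 Briefly, cells in 96-well plates were exposed to five compound concentrations for 48 h, and endpoints were estimated by linear interpolation. TGI is the concentration that stops growth completely.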
# Experiments:
# Assay in all cases: growth of human tumour cells (NCI), 48 h
# NCI-H226 lung = system: NCI-H226 lung
# TK-10 renal = system: TK-10 renal
# NCI/ADR-RES ovarian = system: NCI/ADR-RES ovarian
# UACC-257 melanoma = system: UACC-257 melanoma
# OVCAR-4 ovarian = system: OVCAR-4 ovarian
# COLO 205 colon = system: COLO 205 colon
# SK-MEL-5 melanoma = system: SK-MEL-5 melanoma
# HL-60(TB) leukemia = system: HL-60(TB) leukemia
# SW-620 colon = system: SW-620 colon
# HCC-2998 colon = system: HCC-2998 colon
# SF-539 CNS = system: SF-539 CNS
# T-47D breast = system: T-47D breast
# DU-145 prostate = system: DU-145 prostate
# K-562 leukemia = system: K-562 leukemia
# NCI-H522 lung = system: NCI-H522 lung
SMILES,TGI (NCI-H226 lung),TGI (TK-10 renal),TGI (NCI/ADR-RES ovarian),TGI (UACC-257 melanoma),TGI (OVCAR-4 ovarian),TGI (COLO 205 colon),TGI (SK-MEL-5 melanoma),TGI (HL-60(TB) leukemia),TGI (SW-620 colon),TGI (HCC-2998 colon),TGI (SF-539 CNS),TGI (T-47D breast),TGI (DU-145 prostate),TGI (K-562 leukemia),TGI (NCI-H522 lung)
Cn1c(-c2ccccc2)cc(-c2ccc3c(c2)OCO3)c1-c1cccs1,> 100 µM,> 100 µM,> 100 µM,> 100 µM,> 100 µM,> 100 µM,> 100 µM,> 100 µM,> 100 µM,> 100 µM,> 100 µM,> 100 µM,> 100 µM,> 100 µM,–
OC(c1cc(C(O)(C(F)(F)F)C(F)(F)F)ncn1)(C(F)(F)F)C(F)(F)F,> 10 µM,> 10 µM,> 10 µM,> 10 µM,> 10 µM,> 10 µM,> 10 µM,> 10 µM,> 10 µM,> 10 µM,> 10 µM,> 10 µM,> 10 µM,> 10 µM,> 10 µM
NS(=O)(=O)c1ccc(NNC(=O)c2cccc3c(=O)c4ccccc4[nH]c23)cc1,> 100 µM,> 100 µM,> 100 µM,> 100 µM,> 100 µM,> 100 µM,> 100 µM,> 100 µM,> 100 µM,> 100 µM,> 100 µM,> 100 µM,> 100 µM,> 100 µM,> 100 µM
CC1=NN(c2nc(N)nc(CS(C)(=O)=O)n2)C(C)(C)C1,–,> 100 µM,> 100 µM,> 100 µM,> 100 µM,> 100 µM,> 100 µM,> 100 µM,> 100 µM,> 100 µM,> 100 µM,> 100 µM,> 100 µM,> 100 µM,–
COC(=O)N1CC[C@@H]2CCC=C(c3cccc4c3OCO4)[C@@H]21,> 100 µM,> 100 µM,> 100 µM,> 100 µM,> 100 µM,> 100 µM,> 100 µM,> 100 µM,> 100 µM,> 100 µM,> 100 µM,> 100 µM,> 100 µM,> 100 µM,> 100 µM
Cc1nn2c(N)cc(=O)nc2nc1/C=C/c1ccc(N(C)C)cc1,> 100 µM,> 100 µM,> 100 µM,> 100 µM,> 100 µM,> 100 µM,> 100 µM,0.0117 µM,> 100 µM,23.3 µM,–,> 100 µM,> 100 µM,> 100 µM,7.62 µM
C=CCCCCOC1C=CC(OC(C)=O)C(COC(C)=O)O1 (stereo unspecified),> 100 µM,> 100 µM,> 100 µM,> 100 µM,> 100 µM,> 100 µM,> 100 µM,> 100 µM,> 100 µM,> 100 µM,> 100 µM,> 100 µM,> 100 µM,–,> 100 µM
Oc1c(C(O)(c2ccccc2)c2ccc3ccccc3c2O)ccc2ccccc12,36.5 µM,26.8 µM,43.1 µM,23.4 µM,> 47.8 µM,31.9 µM,18 µM,13.9 µM,41.8 µM,20 µM,36.1 µM,32.5 µM,34.6 µM,15.7 µM,16.5 µM
CCOC(=O)c1ccc(N=C2SC(=S)N(c3ccc(F)cc3)C2=Nc2ccc(C(=O)OCC)cc2)cc1,43.1 µM,36.6 µM,44.8 µM,37.4 µM,33.4 µM,40.3 µM,25.1 µM,22.3 µM,30 µM,> 80.5 µM,42.7 µM,22.7 µM,> 100 µM,47.3 µM,19.1 µM
CN1CN(c2ccccc2)C2(CCNCC2)C1=O,> 100 µM,> 100 µM,> 100 µM,> 100 µM,> 100 µM,> 100 µM,> 100 µM,> 100 µM,> 100 µM,> 100 µM,> 100 µM,> 100 µM,> 100 µM,> 100 µM,> 100 µM
Clc1cc2nc(C3CCCO3)[nH]c2cc1Cl (stereo unspecified),> 100 µM,> 100 µM,> 100 µM,> 100 µM,> 100 µM,> 100 µM,> 100 µM,> 100 µM,> 100 µM,> 100 µM,> 100 µM,> 100 µM,–,> 100 µM,66 µM
COc1ccc2c(c1)/C(=C(\C(Cl)=C(\Cl)N1CCCCC1)[N+](=O)[O-])N2,> 100 µM,> 100 µM,> 100 µM,> 100 µM,> 100 µM,> 100 µM,> 100 µM,> 100 µM,> 100 µM,> 100 µM,–,> 100 µM,> 100 µM,> 100 µM,> 100 µM
C1CNCCN2CCCNCCN(C1)CC2,> 100 µM,> 100 µM,> 100 µM,> 100 µM,> 100 µM,> 100 µM,> 100 µM,–,> 100 µM,–,> 100 µM,> 100 µM,> 100 µM,–,> 100 µM
COc1ccc2nc(-c3ccc(OC(=O)N(C)C)cc3)cn2c1,> 100 µM,> 100 µM,> 100 µM,> 100 µM,> 100 µM,> 100 µM,> 100 µM,> 100 µM,> 100 µM,> 100 µM,–,> 100 µM,–,> 100 µM,> 100 µM
N#CS/C(C(Cl)=C(Cl)Cl)=C(/Cl)[N+](=O)[O-],19.9 µM,4.66 µM,> 28.1 µM,3.79 µM,–,3.66 µM,6.37 µM,0.512 µM,3.5 µM,34.6 µM,16.1 µM,4.86 µM,27.8 µM,1.62 µM,2.13 µM
O=C(CC(=O)c1ccncc1)c1ccccc1,> 100 µM,> 100 µM,69.3 µM,> 100 µM,> 100 µM,> 100 µM,> 100 µM,–,> 100 µM,> 100 µM,> 100 µM,> 100 µM,> 100 µM,> 100 µM,> 100 µM
